From ChEMBL document CHEMBL1201862, “PubChem BioAssay data set” (2004)
The source made the active and inactive calls.

Tests used:
Cysteine protease ATG4B = Cysteine protease ATG4B (Homo sapiens, UniProt Q9Y4P1); assay type: functional;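 note: Fluorescence-based dose-response confirmation assay measuring inhibition of ATG4B activity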
Phospholipase A2 = Phospholipase A2 (Homo sapiens, UniProt P04054); assay type: functional;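 note: confirmatory dose-response counterscreen on phospholipase A2, testing hits that came from an ultra-high-throughput screen for ATG4B inhibitors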
BJ [1] = test: cytotoxicity toward BJ-TERT fibroblasts, dose response, cell-based, RAS-independent, luminescence (AID 1933); assay type: functional; conditions: Homo sapiens
BJ [2] = test: cells; assay type: functional, cell-based; conditions: Homo sapiens
BJ [3] = test: cytotoxicity toward BJ-TERT-LT-ST fibroblasts, dose response, cell-based, RAS-independent, luminescence (AID 1935); assay type: functional; conditions: Homo sapiens;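 note: BJ fibroblasts immortalized with TERT plus LT and ST oncogenes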
[4] = cytotoxicity toward DRD oncogenic fibroblasts, dose response, cell-based, non-viral oncogenic, luminescence (AID 1934); assay type: functional; conditions: Homo sapiens
[5] = target: Latent membrane protein 1 (Human herpesvirus 4 (strain B95-8), UniProt P03230); test: TES1-eGFP NF-kB reporter inhibition versus Tet-On dsRED, dose response, selectivity assay for LMP1 NF-kB inhibitor project, imaging, HEK293T, dual-color eGFP/dsRED, cherry-picks (AID 588398); assay type: functional, cell-based
HEK293 [6] = test: cytotoxicity in HEK293T NF-kB-Luc cells, SAR follow-up, cytotoxicity control for NF-kB activator project, cell-based, resazurin fluorescence (AID 493251); assay type: functional; conditions: Homo sapiens
Jurkat = test: SAR Analysis of small molecule inhibitors of T-cell specific antigen receptor-induced NF-kB activation in a Jurkat cell line using a luminescence assay. [Related pubchem assays (depositor defined):AID435003, AID435012, AID465]; assay type: functional, cell-based; conditions: Homo sapiens
HEK293 [7] = test: SAR Analysis of small molecule inhibitors of T-cell specific antigen receptor-induced NF-kB activation in a HEK-293T cell line using a luminescence assay. [Related pubchem assays (depositor defined):AID435003, AID435012, AID489026]; assay type: functional, cell-based; conditions: Homo sapiens
HEK293 [8] = test: NOD1 signaling inhibitors, primary screen, cell-based, luminescence, uHTS (AID 1578); assay type: functional; conditions: Homo sapiens
HEK293 [9] = test: cells; assay type: functional, cell-based; conditions: Homo sapiens
HEK293 [10] = test: cells; assay type: functional, cell-based; conditions: Homo sapiens; remark: listed apart in the source
[11] = Luminescence-based counterscreen assay for KLF5 inhibitors: dose response cell-based high throughput screening assay to identify cytotoxic compounds using the IEC-6 intestinal epithelial cell line. [Related pubchem assays: 1700 (Primary screen.), 1834 (Confirmation screen.), 1858 (Summary AID.), 1905 (Counterscreen.)]; assay type: functional
[12] = target: Nucleotide-binding oligomerization domain-containing protein 2 (Homo sapiens, UniProt Q9HC29); test: NOD2 signaling inhibitors, cell-based, luminescence, uHTS, HEK293 (AID 1566); assay type: functional
HEK293 [13] = test: NOD2 signaling inhibitors in MDP-stimulated cells, cell-based, uHTS, luminescence (AID 2001); assay type: functional; conditions: Homo sapiens
HEK293 [14] = test: cells; assay type: functional, cell-based; conditions: Homo sapiens; remark: listed apart in the source
Tumor necrosis factor = Tumor necrosis factor (Homo sapiens, UniProt P01375); test: TNFa-triggered NF-kB activation inhibitors, SAR follow-up, cell-based, revised (AID 2337); assay type: functional
[15] = target: T1, Nucleotide-binding oligomerization domain-containing protein 1 (Homo sapiens, UniProt Q9Y239); test: NOD1 signaling inhibitors, SAR follow-up, revised (AID 2333); assay type: functional
T1 sequence (Q9Y239 whole entry): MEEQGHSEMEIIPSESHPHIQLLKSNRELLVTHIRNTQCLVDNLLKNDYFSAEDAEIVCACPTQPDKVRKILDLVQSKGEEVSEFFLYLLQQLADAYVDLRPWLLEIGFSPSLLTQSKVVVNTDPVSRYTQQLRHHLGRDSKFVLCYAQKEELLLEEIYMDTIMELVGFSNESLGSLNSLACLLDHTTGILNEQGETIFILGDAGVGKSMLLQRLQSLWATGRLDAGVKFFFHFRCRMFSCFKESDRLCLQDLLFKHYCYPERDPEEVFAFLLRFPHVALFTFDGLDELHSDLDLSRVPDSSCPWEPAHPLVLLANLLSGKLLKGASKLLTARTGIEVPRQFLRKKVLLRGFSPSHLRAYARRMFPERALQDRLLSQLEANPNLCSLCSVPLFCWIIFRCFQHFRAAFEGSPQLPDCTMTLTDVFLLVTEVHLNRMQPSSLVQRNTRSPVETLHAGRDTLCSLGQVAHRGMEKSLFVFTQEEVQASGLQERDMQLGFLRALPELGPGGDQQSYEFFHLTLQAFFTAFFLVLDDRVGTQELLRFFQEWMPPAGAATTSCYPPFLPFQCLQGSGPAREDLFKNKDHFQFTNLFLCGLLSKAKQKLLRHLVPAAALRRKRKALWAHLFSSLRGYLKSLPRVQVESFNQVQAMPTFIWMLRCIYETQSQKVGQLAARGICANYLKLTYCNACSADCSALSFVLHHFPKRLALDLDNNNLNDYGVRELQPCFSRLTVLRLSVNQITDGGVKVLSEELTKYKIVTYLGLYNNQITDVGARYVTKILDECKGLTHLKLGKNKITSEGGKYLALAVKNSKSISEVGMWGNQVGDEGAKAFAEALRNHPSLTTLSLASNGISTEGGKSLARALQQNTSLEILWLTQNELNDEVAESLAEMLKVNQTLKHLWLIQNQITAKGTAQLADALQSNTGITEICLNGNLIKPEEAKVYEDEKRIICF

[16] = cytotoxicity in HEK-293T cells, dose response, cytotoxicity control for TCR NF-kB inhibitor project, luminescence, T-cell screen hits (AID 489026); assay type: functional, cell-based;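 note: cells exposed to compound about 14 hours before the viability readout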
H4 [17] = test: inhibitors of control reporter signal in H4 cells – cell-based, plate reader, dry powder samples, counter-screen for prion reporter project, dose response (AID 540255); assay type: functional; conditions: Homo sapiens
H4 [18] = test: Inhibitors of Prion Protein 5' UTR mRNA Measured in Cell-Based System Using Plate Reader - 2078-01_Inhibitor_Dose_DryPowder_Activity. [Related pubchem assays (depositor defined):AID488894]; assay type: functional; conditions: Homo sapiens
HEK293 [19] = test: cells; conditions: Homo sapiens
[20] = viability loss in Mcl1-dependent HMC-1-8 cells, dose response, selectivity assay for A1 inhibitor project, cell-based, luminescence, dry powder (AID 504415); assay type: functional; conditions: Homo sapiens
[21] = target: Eukaryotic translation initiation factor 4H (Homo sapiens, UniProt Q15056); test: human eIF4H binding inhibitors, primary screen, translation initiation inhibitor project, biochemical, uHTS, fluorescence polarization (AID 2012)
[22] = target: Induced myeloid leukemia cell differentiation protein Mcl-1 (Homo sapiens, UniProt Q07820); assay type: functional
[23] = target: Polyadenylate-binding protein 1 (Homo sapiens, UniProt P11940); test: PABP poly(A) RNA binding inhibitors, primary screen, biochemical, fluorescence polarization, uHTS (AID 2014)
[24] = target: Beta-adrenergic receptor kinase 1 (Homo sapiens, UniProt P25098); test: aptamer displacement from bead-bound GRK2 – biochemical, cherry pick 1, bead flow cytometry, dose response (AID 504500)
[25] = target: T2, Apoptotic protease-activating factor 1 (Homo sapiens, UniProt O14727); test: activation of Apaf-1 mediated apoptosis – fluorescent, uHTS hits, dose response (AID 588554); assay type: functional
T2 sequence (O14727 whole entry): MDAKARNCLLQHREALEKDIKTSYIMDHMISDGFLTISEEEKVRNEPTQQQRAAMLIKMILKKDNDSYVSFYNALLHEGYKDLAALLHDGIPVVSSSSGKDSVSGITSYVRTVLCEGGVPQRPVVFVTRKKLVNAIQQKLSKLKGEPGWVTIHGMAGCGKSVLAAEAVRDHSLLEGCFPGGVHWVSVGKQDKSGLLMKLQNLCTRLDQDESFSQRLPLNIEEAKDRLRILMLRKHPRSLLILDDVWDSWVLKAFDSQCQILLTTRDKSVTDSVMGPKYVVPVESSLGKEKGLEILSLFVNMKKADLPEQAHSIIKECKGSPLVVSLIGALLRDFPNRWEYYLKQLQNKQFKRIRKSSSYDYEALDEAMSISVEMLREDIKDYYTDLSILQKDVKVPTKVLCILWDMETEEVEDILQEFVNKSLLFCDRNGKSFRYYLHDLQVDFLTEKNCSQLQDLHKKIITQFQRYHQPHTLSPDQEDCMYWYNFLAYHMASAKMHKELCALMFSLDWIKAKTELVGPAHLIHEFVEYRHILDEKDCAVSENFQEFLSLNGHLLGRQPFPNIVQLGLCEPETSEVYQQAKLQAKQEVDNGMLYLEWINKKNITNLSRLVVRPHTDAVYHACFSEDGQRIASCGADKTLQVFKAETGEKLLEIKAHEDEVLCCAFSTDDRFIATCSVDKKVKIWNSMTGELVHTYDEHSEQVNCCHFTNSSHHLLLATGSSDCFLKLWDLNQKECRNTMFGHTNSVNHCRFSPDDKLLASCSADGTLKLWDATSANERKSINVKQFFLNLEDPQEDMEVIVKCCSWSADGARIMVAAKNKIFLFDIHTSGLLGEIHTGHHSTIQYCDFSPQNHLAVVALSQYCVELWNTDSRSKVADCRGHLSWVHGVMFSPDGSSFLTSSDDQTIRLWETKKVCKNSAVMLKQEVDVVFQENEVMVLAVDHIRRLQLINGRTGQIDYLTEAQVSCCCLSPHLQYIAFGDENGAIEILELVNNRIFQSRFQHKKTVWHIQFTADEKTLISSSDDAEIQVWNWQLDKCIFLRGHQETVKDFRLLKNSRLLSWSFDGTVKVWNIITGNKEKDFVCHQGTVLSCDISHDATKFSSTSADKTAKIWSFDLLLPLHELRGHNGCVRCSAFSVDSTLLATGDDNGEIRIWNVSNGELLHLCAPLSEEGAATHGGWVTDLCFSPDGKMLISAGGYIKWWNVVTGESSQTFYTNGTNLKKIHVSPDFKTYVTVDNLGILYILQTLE

Chain of Induced myeloid leukemia cell differentiation protein Mcl-1 (Q07820 whole entry): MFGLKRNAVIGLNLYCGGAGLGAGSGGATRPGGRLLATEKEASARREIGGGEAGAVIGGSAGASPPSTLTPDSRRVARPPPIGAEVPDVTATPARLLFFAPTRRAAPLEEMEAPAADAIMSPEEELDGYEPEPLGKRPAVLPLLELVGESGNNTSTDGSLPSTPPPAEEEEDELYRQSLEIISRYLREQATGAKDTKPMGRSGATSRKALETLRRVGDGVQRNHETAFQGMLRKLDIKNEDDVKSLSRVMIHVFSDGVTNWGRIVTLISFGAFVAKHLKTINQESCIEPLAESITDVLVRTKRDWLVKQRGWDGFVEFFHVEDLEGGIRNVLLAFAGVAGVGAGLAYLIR
Chain of Nucleotide-binding oligomerization domain-containing protein 2 (Q9HC29 whole entry, the tested form may be a part): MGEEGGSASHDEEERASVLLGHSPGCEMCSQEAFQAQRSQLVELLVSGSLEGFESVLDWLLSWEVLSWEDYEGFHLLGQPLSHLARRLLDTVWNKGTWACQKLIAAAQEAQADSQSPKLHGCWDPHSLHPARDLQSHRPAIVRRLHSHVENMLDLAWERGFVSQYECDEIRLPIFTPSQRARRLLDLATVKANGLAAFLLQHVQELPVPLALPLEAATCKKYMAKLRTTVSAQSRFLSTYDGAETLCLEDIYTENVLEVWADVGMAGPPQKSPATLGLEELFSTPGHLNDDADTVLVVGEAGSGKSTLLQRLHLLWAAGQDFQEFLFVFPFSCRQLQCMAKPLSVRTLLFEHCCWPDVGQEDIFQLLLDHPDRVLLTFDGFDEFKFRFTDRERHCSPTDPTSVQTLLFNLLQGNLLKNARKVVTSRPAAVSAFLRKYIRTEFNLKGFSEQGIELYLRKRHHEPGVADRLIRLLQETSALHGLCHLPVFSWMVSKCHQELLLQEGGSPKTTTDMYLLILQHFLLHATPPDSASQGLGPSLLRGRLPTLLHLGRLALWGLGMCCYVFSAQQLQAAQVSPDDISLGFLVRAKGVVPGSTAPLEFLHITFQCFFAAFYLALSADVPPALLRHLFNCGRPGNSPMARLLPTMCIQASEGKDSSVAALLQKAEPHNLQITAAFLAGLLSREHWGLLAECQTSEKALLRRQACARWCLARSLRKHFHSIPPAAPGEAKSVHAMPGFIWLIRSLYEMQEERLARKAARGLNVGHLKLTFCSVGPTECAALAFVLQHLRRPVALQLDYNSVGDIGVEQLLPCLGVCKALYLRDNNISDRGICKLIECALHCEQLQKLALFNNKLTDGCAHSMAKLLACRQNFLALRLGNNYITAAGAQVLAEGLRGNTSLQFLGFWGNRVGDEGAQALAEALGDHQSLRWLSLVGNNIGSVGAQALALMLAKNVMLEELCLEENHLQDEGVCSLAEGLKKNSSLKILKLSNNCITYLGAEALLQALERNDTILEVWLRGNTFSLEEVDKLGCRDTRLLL
Chain of Polyadenylate-binding protein 1 (P11940 whole entry): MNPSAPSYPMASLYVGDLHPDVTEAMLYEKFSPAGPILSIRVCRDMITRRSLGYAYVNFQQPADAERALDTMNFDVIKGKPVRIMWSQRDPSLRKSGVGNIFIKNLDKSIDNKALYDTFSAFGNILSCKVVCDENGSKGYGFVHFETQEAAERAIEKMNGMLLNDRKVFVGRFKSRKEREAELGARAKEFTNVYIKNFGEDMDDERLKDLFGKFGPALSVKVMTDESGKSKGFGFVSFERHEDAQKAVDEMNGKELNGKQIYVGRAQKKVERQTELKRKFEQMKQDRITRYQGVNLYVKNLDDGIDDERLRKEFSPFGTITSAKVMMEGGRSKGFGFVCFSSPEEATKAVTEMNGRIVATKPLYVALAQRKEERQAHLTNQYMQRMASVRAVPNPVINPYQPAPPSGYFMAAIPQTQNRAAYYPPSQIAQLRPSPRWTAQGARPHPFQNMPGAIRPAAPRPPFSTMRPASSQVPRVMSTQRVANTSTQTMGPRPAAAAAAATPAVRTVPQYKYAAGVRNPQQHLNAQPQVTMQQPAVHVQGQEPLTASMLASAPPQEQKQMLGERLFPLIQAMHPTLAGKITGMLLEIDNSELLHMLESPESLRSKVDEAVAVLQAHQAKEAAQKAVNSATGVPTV
Chain of Latent membrane protein 1 (P03230 whole entry): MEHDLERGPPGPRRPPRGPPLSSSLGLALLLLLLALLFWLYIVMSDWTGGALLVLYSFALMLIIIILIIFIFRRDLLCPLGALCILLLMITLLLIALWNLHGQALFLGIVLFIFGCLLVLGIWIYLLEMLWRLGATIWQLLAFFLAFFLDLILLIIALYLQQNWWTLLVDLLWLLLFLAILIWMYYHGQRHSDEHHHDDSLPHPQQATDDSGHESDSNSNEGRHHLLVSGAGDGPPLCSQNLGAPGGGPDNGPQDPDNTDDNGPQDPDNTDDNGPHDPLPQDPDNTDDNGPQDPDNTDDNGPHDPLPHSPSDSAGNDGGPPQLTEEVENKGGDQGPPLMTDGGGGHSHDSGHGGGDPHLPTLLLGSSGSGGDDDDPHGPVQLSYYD
Chain of Beta-adrenergic receptor kinase 1 (P25098 whole entry): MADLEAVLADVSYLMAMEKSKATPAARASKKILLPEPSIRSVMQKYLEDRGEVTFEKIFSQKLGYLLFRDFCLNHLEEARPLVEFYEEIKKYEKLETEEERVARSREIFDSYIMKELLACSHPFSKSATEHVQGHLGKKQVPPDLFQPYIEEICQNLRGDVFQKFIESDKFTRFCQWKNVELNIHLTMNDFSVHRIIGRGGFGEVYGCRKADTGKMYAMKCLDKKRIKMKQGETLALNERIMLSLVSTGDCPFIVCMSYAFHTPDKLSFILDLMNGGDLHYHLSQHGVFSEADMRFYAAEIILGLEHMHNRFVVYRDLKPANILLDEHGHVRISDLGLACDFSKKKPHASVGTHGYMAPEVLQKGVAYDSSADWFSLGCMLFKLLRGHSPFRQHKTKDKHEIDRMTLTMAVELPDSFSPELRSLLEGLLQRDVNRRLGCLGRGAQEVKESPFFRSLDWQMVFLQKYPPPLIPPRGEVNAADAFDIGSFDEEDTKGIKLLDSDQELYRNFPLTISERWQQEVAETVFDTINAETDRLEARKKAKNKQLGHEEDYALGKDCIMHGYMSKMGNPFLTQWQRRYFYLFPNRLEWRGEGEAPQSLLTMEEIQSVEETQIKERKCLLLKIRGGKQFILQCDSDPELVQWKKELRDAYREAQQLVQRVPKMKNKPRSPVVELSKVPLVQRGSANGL
Chain of Tumor necrosis factor (P01375 whole entry, the tested form may be a part): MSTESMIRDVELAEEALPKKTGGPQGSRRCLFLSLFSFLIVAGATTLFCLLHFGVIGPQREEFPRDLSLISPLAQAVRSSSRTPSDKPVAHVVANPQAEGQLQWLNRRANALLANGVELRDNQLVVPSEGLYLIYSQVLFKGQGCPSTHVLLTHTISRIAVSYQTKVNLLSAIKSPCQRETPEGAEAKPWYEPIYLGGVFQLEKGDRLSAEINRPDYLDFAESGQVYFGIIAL
Chain of Cysteine protease ATG4B (Q9Y4P1 whole entry): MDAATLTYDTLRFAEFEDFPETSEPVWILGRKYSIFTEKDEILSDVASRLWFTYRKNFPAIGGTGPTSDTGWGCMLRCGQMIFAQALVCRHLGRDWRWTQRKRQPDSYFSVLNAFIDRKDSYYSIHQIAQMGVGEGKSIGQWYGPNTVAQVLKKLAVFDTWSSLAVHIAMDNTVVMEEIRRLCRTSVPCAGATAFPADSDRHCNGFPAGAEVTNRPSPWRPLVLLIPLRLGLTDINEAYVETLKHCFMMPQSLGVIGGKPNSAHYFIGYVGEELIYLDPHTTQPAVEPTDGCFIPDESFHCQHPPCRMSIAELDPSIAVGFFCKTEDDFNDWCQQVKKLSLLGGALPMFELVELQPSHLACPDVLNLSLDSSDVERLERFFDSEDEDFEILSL
Chain of Phospholipase A2 (P04054 whole entry): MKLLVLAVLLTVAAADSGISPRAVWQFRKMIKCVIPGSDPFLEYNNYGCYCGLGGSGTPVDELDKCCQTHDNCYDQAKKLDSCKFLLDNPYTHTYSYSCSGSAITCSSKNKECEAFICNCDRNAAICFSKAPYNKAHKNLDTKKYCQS

Q: For `CC(C)c1ccc(NC2CCCN(C(=O)c3cc(C(C)C)n[nH]3)C2)cc1` (centres undefined), which IC50 (Cysteine protease ATG4B) is on record?
A: 16.8 µM (active)

Q: What about the IC50 (Phospholipase A2) of the same compound?
A: 12.2 µM (active)

Q: What does the source list for `CCOc1ccc(C(C)=O)cc1COc1cccnc1[N+](=O)[O-]`?
A: EC50 (BJ [1]): 23.1 µM (active); EC50 (BJ [2]): 32.2 µM (active); EC50 (BJ [3]): > 150 µM (inconclusive); EC50 [4]: 21.9 µM (active); AC50 [5]: 80.9 µM (active)

Q: For `COc1ccc(C(NC(C)=O)c2ccc3cccnc3c2O)cc1` (centres undefined), which IC50 (HEK293 [6]) is on record?
A: 16.5 µM (active)

Q: What about the IC50 (Jurkat) of the same compound?
A: 4.23 µM (active)

Q: And the IC50 (HEK293 [7])?
A: 6.35 µM (active)

Q: With `CC(C)(C)c1ccc(C(=O)O/N=C(\N)c2ccccn2)cc1` as the compound, how does the EC50 (HEK293 [8]) read?
A: 2.73 µM (active)

Q: And the IC50 (HEK293 [9])?
A: < 0.312 µM (active)

Q: What about the IC50 (HEK293 [10]) of the same compound?
A: > 20 µM (inactive)

Q: And the IC50 [11]?
A: 23.1 µM (not active)

Q: What about the EC50 [12] of the same compound?
A: 0.04 µM (active)

Q: What about the IC50 (HEK293 [13]) of the same compound?
A: 3.04 µM (active)

Q: What about the IC50 (HEK293 [14]) of the same compound?
A: > 20 µM (inactive)

Q: And the IC50 (Tumor necrosis factor)?
A: 0.952 µM (active)

Q: What about the IC50 [15] of the same compound?
A: 2 µM (active)

Q: And the IC50 [16]?
A: > 80 µM (inactive)

Q: And the AC50 (H4 [17])?
A: 0.034 µM (active)

Q: And the AC50 (H4 [18])?
A: 0.032 µM (active)

Q: What about the IC50 (HEK293 [19]) of the same compound?
A: > 20 µM (inactive)

Q: Which AC50 [20] does the source give for `O=c1oc2ccccc2c(Sc2ccccc2)c1[N+](=O)[O-]` here?
A: 56.1 µM (active)

Q: For `C=C(C)C(=O)Nc1cccc(C2=NOC3(C2)C[C@@H](C(N)=O)N(C(=O)c2ccc(Cl)cc2)C3)c1` (some centres undefined), which IC50 [21] is on record?
A: 0.7 µM (active)

Q: And the IC50 [22]?
A: 1.54 µM (active)

Q: What about the IC50 [23] of the same compound?
A: 9.01 µM (active)

Q: What about the EC50 [24] of the same compound?
A: 0.73 µM (active)

Q: And the EC50 [25]?
A: 2.35 µM (active)
